Measurements from paper PMC5740082, “Identification of a CARM1 Inhibitor with Potent In Vitro and In Vivo Activity in Preclinical Models of Multiple Myeloma” (Scientific Reports, 2017).
pIC50: −log10 of the molar value.

Assays:
[1] = Plasma protein binding (equilibrium dialysis), rat plasma; type: in vitro ADME; settings: Sprague-Dawley, pH 7.4
Procedure: Hepatocyte stability, plasma protein binding and cytochrome P450 assays were performed using standard procedures. Details can be found in Supplementary Methods. […]
Plasma protein binding was assessed b y equilibrium dial ysis, utilizing the HT-dial ysis cell format with a cellulose semi- permeable membran e (molecular wei ght cut-off of 5000 Da).
(pH 7.4) and 100% mixed gender pooled human, pooled male CD -1 mouse or Sprague-Dawle y rat plasma. The buffer solution was added to one s ide of the membrane and the plasma solution to the other side. Incubations were performed in duplicate for 16 h, at 37°C, in order to allow the compounds to reach equi librium. Haloperidol was incubated in parallel as the control compound for each speci es. At the end of the incubation time, samples were taken from both sides of the membrane. Following protein precipitation, the samples were anal yz ed b y LC-MS/MS using two sets of calibration standards for protein free (7 poi nts) and protein containi ng solutions (6 points). Samples were quantified using standard curves prepared in the equivalent matrix. The fraction unbound in plas ma (fu) was calculated us ing the followin g equ ation: […]

[2] = system: 55 receptors, ion channels and transporters; experiment: ExpresSProfile (CEREP) screen; type: binding; settings: 10 μM
Source text: […]. […] […]. […] […].

[3] = system: KASUMI-1; experiment: Six-day cell proliferation assay (CellTiter-Glo); type: cell-based; settings: Homo sapiens, 144 h; KASUMI-1 (AML), 6 days; read-out: Average day 6 gIC50
Procedure: (§1) Six-day cell proliferation assay
(§2) Optimal cell seeding density was determined empirically for each cell lines by examining the gro wth of a wide ran ge o f seedin g densities in a 3 84-well formatto identify conditio ns that permitted maximal and continued proliferation for 6 days. Cells were plat ed in duplicate plates 24 hours before treatment with a 20- point two-fold dilution series of compound or 0.15%
(§3) DMSO. Plates were incubated for 6 da ys at 37°C in 5% CO2. Cells were th en l ysed with CellTiter-Glo (CTG) (Pr omega) and chemiluminescent sign al was detected with an appropriat e microplate reader. In addition, an untreated plate of cells was harvested at the time of compound addition (T0) to quantif y the initial cell densit y. CTG values obtained after 6 days of treatment were expressed as a percent of the T0 value and plotted against compound concentration. […]
(§4) Supplementary Table S 3. […] A p anel […]
(§5) of cell lines was treated with EZM2302fo r 6da ys in a proliferation ass a y. Cell densit y (as assessed b y CellTiter-Gl o) at da y 0 was compared to day 6 to det ermine growth IC 50 values , calculated us i n g a f our parameter dose response equation.
(§6) Cell Type According to Cell Type Category Cell L ine Name gIC50 Average day 6 Standard Replicates
(§7) Supplier Modifier gIC50 (nM) Deviation […]
(§8) Burkitt lymphoma lymphoma NC-37 > 7331 0 2 […]

[4] = system: MC/CAR; experiment: Six-day cell proliferation assay (CellTiter-Glo); type: cell-based; settings: 144 h; MC/CAR (EBV+ B-lymphoblastoid), 6 days; read-out: Average day 6 gIC50
Procedure: as §1, §2, §3, §4, §5, §6, §7, §8

[5] = system: EJM; experiment: Six-day cell proliferation assay (CellTiter-Glo); type: cell-based; settings: Homo sapiens, 144 h; EJM (MM), 6 days; read-out: Average day 6 gIC50
Procedure: as §1, §2, §3, §4, §5, §6, §7, §8

[6] = system: MOLP-2; experiment: Six-day cell proliferation assay (CellTiter-Glo); type: cell-based; settings: 144 h; MOLP-2 (MM), 6 days; read-out: Average day 6 gIC50
Procedure: as §1, §2, §3, §4, §5, §6, §7, §8

[7] = system: KMS-12BM; experiment: Six-day cell proliferation assay (CellTiter-Glo); type: cell-based; settings: Homo sapiens, 144 h; KMS-12BM (MM, Bone marrow), 6 days; read-out: Average day 6 gIC50
Procedure: as §1, §2, §3, §4, §5, §6, §7, §8

[8] = system: MOLM-16; experiment: Six-day cell proliferation assay (CellTiter-Glo); type: cell-based; settings: MOLM16, 144 h; MOLM-16 (AML), 6 days; read-out: Average day 6 gIC50
Procedure: as §1, §2, §3, §4, §5, §6, §7, §8

[9] = system: MOLP-8; experiment: Six-day cell proliferation assay (CellTiter-Glo); type: cell-based; settings: Homo sapiens, 144 h; MOLP-8 (MM), 6 days; read-out: Average day 6 gIC50
Procedure: as §1, §2, §3, §4, §5, §6, §7, §8

[10] = system: DOHH-2; experiment: Six-day cell proliferation assay (CellTiter-Glo); type: cell-based; settings: Homo sapiens, 144 h; DOHH-2 (tFL), 6 days; read-out: Average day 6 gIC50
Procedure: as §1, §2, §3, §4, §5, §6, §7, §8

[11] = system: NC-37; experiment: Six-day cell proliferation assay (CellTiter-Glo); type: cell-based; settings: Homo sapiens, 144 h; NC-37 (Burkitt lymphoma), 6 days; read-out: Average day 6 gIC50
Procedure: as §1, §2, §3, §4, §5, §6, §7, §8

[12] = system: GDM-1; experiment: Six-day cell proliferation assay (CellTiter-Glo); type: cell-based; settings: Homo sapiens, 144 h; GDM-1 (AML), 6 days; read-out: Average day 6 gIC50
Procedure: as §1, §2, §3, §4, §5, §6, §7, §8

[13] = system: JM1; experiment: Six-day cell proliferation assay (CellTiter-Glo); type: cell-based; settings: Homo sapiens, 144 h; JM1 (B-cell lymphoma), 6 days; read-out: Average day 6 gIC50
Procedure: as §1, §2, §3, §4, §5, §6, §7, §8

[14] = system: L363; experiment: Six-day cell proliferation assay (CellTiter-Glo); type: cell-based; settings: Homo sapiens, L-363, 144 h; L363 (Plasma cell leukemia), 6 days; read-out: Average day 6 gIC50
Procedure: as §1, §2, §3, §4, §5, §6, §7, §8

[15] = system: BT20; experiment: Long term proliferation assay (15 days); type: cell-based; settings: Homo sapiens, BT-20, 360 h, read-out: EZM2302 IC50 (absolute, long term proliferation); BT20, BREAST, day 15
Procedure: (§9) Long term (14–15 day) cell proliferation assays were performed using the method previously described with adjustments to initial seeding densities depending on growth characteristics for each cell line[54],[55]. For 6 day proliferation studies, see Supplementary Methods.
(§10) Supplementary Table S2. Long term proliferation IC50 values of cell lines dosed with EZM2302. A panel of cell lines was treated with EZM2302fo r 15 da ys in a long term proliferation assa y. Abs olute IC 50 values were calculated in GraphPad Pri sm (non -linear regression anal ysis, top of the curves were fixed to 100%) for each line at d ay 15 .

[16] = system: HCT116; experiment: Long term proliferation assay (15 days); type: cell-based; settings: Homo sapiens, HCT-116, 360 h, read-out: EZM2302 IC50 (absolute, long term proliferation); HCT116, LARGE, day 15
Procedure: as §9, §10

[17] = system: BT474; experiment: Long term proliferation assay (15 days); type: cell-based; settings: Homo sapiens, BT-474, 360 h, read-out: EZM2302 IC50 (absolute, long term proliferation); BT474, BREAST, day 15
Procedure: as §9, §10

[18] = system: MCF7; experiment: Long term proliferation assay (15 days); type: cell-based; settings: Homo sapiens, 360 h, read-out: EZM2302 IC50 (absolute, long term proliferation); MCF7, BREAST, day 15
Procedure: as §9, §10

CNC[C@@H](O)COc1ccc(Cl)c(-c2nc(-c3c(C)noc3C)c(C)c(N3CC4(CCN(C(=O)OC)CC4)C3)n2)c1 [EZM2302]
fraction unbound at 16 h, 5 µM [1]: 0.74
inhibition or stimulation in any of the assays except KOP receptor [2]: ≤ 40%
pIC50 [3]: 4.88
pIC50 [4]: 6.62
pIC50 [5]: < 4.69
pIC50 [6]: < 4.51
pIC50 [7]: < 4.81
pIC50 [8]: 5.18
pIC50 [9]: 5.18
pIC50 [10]: 6.33
pIC50 [11]: < 5.13
pIC50 [12]: 4.68
pIC50 [13]: < 5.13
pIC50 [14]: 4.79
pIC50 [15]: < 4.70
pIC50 [16]: < 4.70
pIC50 [17]: < 4.70
pIC50 [18]: < 4.70
